{"source": "ChEMBL document CHEMBL2424577", "about": "“Cytotoxicity and DNA-binding property of water-soluble naphthalene diimide derivatives bearing 2-oligoethoxy ethanamine side chain end-labeled with tertiary amino groups” (Med Chem Res, 2013)", "key": {"A549": {"system": "A549", "assay": "Antiproliferative activity against human A549 cells after 48 hrs by MTT assay", "type": "functional, cell-based", "conditions": "A549, 48 h"}, "K562": {"system": "K562", "assay": "Antiproliferative activity against human K562 cells after 48 hrs by MTT assay", "type": "functional, cell-based", "conditions": "K562, 48 h"}, "HeLa": {"system": "HeLa", "assay": "Antiproliferative activity against human HeLa cells after 48 hrs by MTT assay", "type": "functional, cell-based"}, "DNA [1]": {"system": "DNA", "assay": "Binding affinity to calf thymus DNA in phosphate buffer at pH 7.4 assessed as hypochromicity at 5 x 10 '-5 M by Uv-Vis spectroscopy", "type": "nucleic-acid assay", "conditions": "Bos taurus"}, "[2]": {"assay": "Binding affinity to G-quadruplex DNA (unknown origin) in phosphate buffer at pH 7.4 at 5 x 10 '-5 M by Uv-Vis spectroscopy"}, "[3]": {"assay": "Binding affinity to G-quadruplex DNA (unknown origin) in phosphate buffer at pH 7.4 at 5 x 10 '-5 M by fluorescence spectroscopy"}, "DNA [4]": {"system": "DNA", "assay": "Binding affinity to calf thymus DNA in phosphate buffer at pH 7.4 at 5 x 10 '-5 M by Uv-Vis spectroscopy", "type": "nucleic-acid assay", "conditions": "Bos taurus"}, "[5]": {"assay": "Binding affinity to G-quadruplex DNA (unknown origin) in phosphate buffer at pH 7.4 assessed as hypochromicity at 5 x 10 '-5 M by Uv-Vis spectroscopy"}, "[6]": {"assay": "Binding affinity to G-quadruplex DNA (unknown origin) in phosphate buffer at pH 7.4 at 2 x 10 '-5 M by CD spectra analysis"}, "DNA [7]": {"system": "DNA", "assay": "Binding affinity to calf thymus DNA in phosphate buffer at pH 7.4 at 5 x 10 '-5 M by fluorescence spectroscopy", "type": "nucleic-acid assay", "conditions": "Bos taurus"}, "DNA [8]": {"system": "DNA", "assay": "Binding affinity to calf thymus DNA in phosphate buffer at pH 7.4 at 2 x 10 '-5 M by CD spectra analysis", "type": "nucleic-acid assay", "conditions": "Bos taurus"}}, "note": "pIC50: −log10 of the molar value. The source made the active and inactive calls. The calls are words filed in the database; no cut-off is given here."}
{"smiles": "CN(C)CCN1C(=O)c2ccc3c4c(c(NCCOCCN5CCCC5)cc(c24)C1=O)C(=O)N(CCN(C)C)C3=O", "values": [{"measurement": "pIC50", "setting": "A549", "result": 5.69}, {"measurement": "pIC50", "setting": "K562", "result": 6.23}, {"measurement": "pIC50", "setting": "HeLa", "result": 5.67}]}
{"smiles": "CN(C)CCN1C(=O)c2ccc3c4c(c(NCCOCCN5CCN(C)CC5)cc(c24)C1=O)C(=O)N(CCN(C)C)C3=O", "values": [{"measurement": "pIC50", "setting": "A549", "result": 5.53}, {"measurement": "pIC50", "setting": "K562", "result": 5.52}, {"measurement": "pIC50", "setting": "HeLa", "result": 5.28}]}
{"smiles": "CN(C)CCN1C(=O)c2ccc3c4c(c(NCCOCCOCCOCCN5CCOCC5)cc(c24)C1=O)C(=O)N(CCN(C)C)C3=O", "values": [{"measurement": "Activity", "setting": "DNA [1]", "result": 25, "unit": "%"}, {"measurement": "Kb", "setting": "[2]", "result": 1.5, "unit": "×10⁴ /M"}, {"measurement": "pIC50", "setting": "A549", "result": 5.60}, {"measurement": "K", "setting": "[3]", "result": 1.5, "unit": "×10⁴ /M"}, {"measurement": "Kb", "setting": "DNA [4]", "result": 2.3, "unit": "×10⁵ /M"}, {"measurement": "Activity", "setting": "[5]", "result": 9, "unit": "%"}, {"measurement": "Activity", "setting": "[6]", "result": "Active"}, {"measurement": "K", "setting": "DNA [7]", "result": 3.8, "unit": "×10⁵ /M"}, {"measurement": "Activity", "setting": "DNA [8]", "result": "Active"}, {"measurement": "pIC50", "setting": "K562", "result": 5.24}, {"measurement": "pIC50", "setting": "HeLa", "result": 5.42}]}
{"smiles": "CN(C)CCN1C(=O)c2ccc3c4c(c(NCCOCCOCCN5CCOCC5)cc(c24)C1=O)C(=O)N(CCN(C)C)C3=O", "values": [{"measurement": "Activity", "setting": "DNA [1]", "result": 28, "unit": "%"}, {"measurement": "Kb", "setting": "[2]", "result": 4.8, "unit": "×10⁴ /M"}, {"measurement": "pIC50", "setting": "A549", "result": 5.55}, {"measurement": "K", "setting": "[3]", "result": 2.3, "unit": "×10⁴ /M"}, {"measurement": "Kb", "setting": "DNA [4]", "result": 4.5, "unit": "×10⁵ /M"}, {"measurement": "Activity", "setting": "[5]", "result": 11, "unit": "%"}, {"measurement": "Activity", "setting": "[6]", "result": "Active"}, {"measurement": "K", "setting": "DNA [7]", "result": 5.4, "unit": "×10⁵ /M"}, {"measurement": "Activity", "setting": "DNA [8]", "result": "Active"}, {"measurement": "pIC50", "setting": "K562", "result": 5.83}, {"measurement": "pIC50", "setting": "HeLa", "result": 5.23}]}
{"smiles": "CN(C)CCN1C(=O)c2ccc3c4c(c(NCCOCCOCCN5CCCCC5)cc(c24)C1=O)C(=O)N(CCN(C)C)C3=O", "values": [{"measurement": "pIC50", "setting": "A549", "result": 5.53}, {"measurement": "pIC50", "setting": "K562", "result": 5.91}, {"measurement": "pIC50", "setting": "HeLa", "result": 5.23}]}
{"smiles": "CN(C)CCN1C(=O)c2ccc3c4c(c(NCCOCCOCCOCCN5CCCCC5)cc(c24)C1=O)C(=O)N(CCN(C)C)C3=O", "values": [{"measurement": "pIC50", "setting": "A549", "result": 5.16}, {"measurement": "pIC50", "setting": "K562", "result": 5.53}, {"measurement": "pIC50", "setting": "HeLa", "result": 5.39}]}
{"smiles": "CN(C)CCN1C(=O)c2ccc3c4c(c(NCCOCCN5CCCCC5)cc(c24)C1=O)C(=O)N(CCN(C)C)C3=O", "values": [{"measurement": "pIC50", "setting": "A549", "result": 5.66}, {"measurement": "pIC50", "setting": "K562", "result": 6.21}, {"measurement": "pIC50", "setting": "HeLa", "result": 5.68}]}
{"smiles": "CN(C)CCN1C(=O)c2ccc3c4c(c(NCCOCCOCCOCCN5CCCC5)cc(c24)C1=O)C(=O)N(CCN(C)C)C3=O", "values": [{"measurement": "pIC50", "setting": "A549", "result": 5.15}, {"measurement": "pIC50", "setting": "K562", "result": 5.15}, {"measurement": "pIC50", "setting": "HeLa", "result": 5.29}]}
{"smiles": "CN(C)CCN1C(=O)c2ccc3c4c(c(NCCOCCOCCN5CCCC5)cc(c24)C1=O)C(=O)N(CCN(C)C)C3=O", "values": [{"measurement": "pIC50", "setting": "A549", "result": 5.54}, {"measurement": "pIC50", "setting": "K562", "result": 5.60}, {"measurement": "pIC50", "setting": "HeLa", "result": 5.30}]}
{"smiles": "CN(C)CCN1C(=O)c2ccc3c4c(c(NCCOCCOCCN5CCN(C)CC5)cc(c24)C1=O)C(=O)N(CCN(C)C)C3=O", "values": [{"measurement": "pIC50", "setting": "A549", "result": 5.16}, {"measurement": "pIC50", "setting": "K562", "result": 5.56}, {"measurement": "pIC50", "setting": "HeLa", "result": 5.01}]}
{"smiles": "CN(C)CCN1C(=O)c2ccc3c4c(c(NCCOCCN5CCOCC5)cc(c24)C1=O)C(=O)N(CCN(C)C)C3=O", "values": [{"measurement": "Activity", "setting": "DNA [1]", "result": 31, "unit": "%"}, {"measurement": "Kb", "setting": "[2]", "result": 2.8, "unit": "×10⁵ /M"}, {"measurement": "pIC50", "setting": "A549", "result": 5.53}, {"measurement": "K", "setting": "[3]", "result": 6.8, "unit": "×10⁵ /M"}, {"measurement": "Kb", "setting": "DNA [4]", "result": 2.1, "unit": "×10⁶ /M"}, {"measurement": "Activity", "setting": "[5]", "result": 13, "unit": "%"}, {"measurement": "Activity", "setting": "[6]", "result": "Active"}, {"measurement": "K", "setting": "DNA [7]", "result": 3.9, "unit": "×10⁶ /M"}, {"measurement": "Activity", "setting": "DNA [8]", "result": "Active"}, {"measurement": "pIC50", "setting": "K562", "result": 6.17}, {"measurement": "pIC50", "setting": "HeLa", "result": 5.58}]}
{"smiles": "CN(C)CCN1C(=O)c2ccc3c4c(c(NCCOCCOCCOCCN5CCN(C)CC5)cc(c24)C1=O)C(=O)N(CCN(C)C)C3=O", "values": [{"measurement": "pIC50", "setting": "A549", "result": 5.13}, {"measurement": "pIC50", "setting": "K562", "result": 5.44}, {"measurement": "pIC50", "setting": "HeLa", "result": 5.54}]}
